Test results taken from PubChem BioAssay (NCI).
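1) Cells in 96-well plates. 2) Compound, 48 h, 5 concentrations. 3) Linear interpolation between surrounding doses. 4) Unreached endpoint = highest concentration. The concentration for 50% growth inhibition is given as GI50. TGI: concentration producing complete growth inhibition.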

Experiments:
Assay in all cases: NCI anticancer screen, dose series, 48 h
[1] = system: NCI-H460 lung
[2] = system: NCI-H522 lung
[3] = system: NCI/ADR-RES ovarian
[4] = system: OVCAR-3 ovarian
[5] = system: OVCAR-4 ovarian
[6] = system: OVCAR-5 ovarian
[7] = system: OVCAR-8 ovarian
[8] = system: PC-3 prostate
[9] = system: RPMI-8226 leukemia
[10] = system: RXF 393 renal
[11] = system: SF-268 CNS
[12] = system: SF-295 CNS
[13] = system: SF-539 CNS
[14] = system: SK-MEL-2 melanoma
[15] = system: SK-MEL-28 melanoma
[16] = system: SK-MEL-5 melanoma
[17] = system: SK-OV-3 ovarian
[18] = system: SN12C renal
[19] = system: SNB-19 CNS
[20] = system: SNB-75 CNS
[21] = system: SR leukemia
[22] = system: SW-620 colon
[23] = system: T-47D breast
[24] = system: TK-10 renal
[25] = system: U251 CNS
[26] = system: UACC-257 melanoma
[27] = system: UACC-62 melanoma
[28] = system: UO-31 renal

Cc1ccc2c(n1)C(=O)C(Cl)=C(Nc1cccc(C(F)(F)F)c1)C2=O
GI50 [1]: 18.4 µM | TGI [1]: 40.8 µM | GI50 [2]: 2.03 µM | TGI [2]: 5.12 µM | GI50 [3]: 2.65 µM | TGI [3]: 7.88 µM | GI50 [4]: 1.68 µM | TGI [4]: 3.11 µM | GI50 [5]: 1.56 µM | TGI [5]: 3.27 µM | GI50 [6]: 6.03 µM | TGI [6]: 22.1 µM | GI50 [7]: 2.68 µM | TGI [7]: 8.93 µM | GI50 [8]: 2.9 µM | TGI [8]: 11.5 µM | GI50 [9]: 1.92 µM | TGI [9]: 5.91 µM | GI50 [10]: 1.61 µM | TGI [10]: 3 µM | GI50 [11]: 4.76 µM | TGI [11]: 19.6 µM | GI50 [12]: 16.3 µM | TGI [12]: 31.2 µM | GI50 [13]: 3.18 µM | TGI [13]: 10.3 µM | GI50 [14]: 2.38 µM | TGI [14]: 5.73 µM | GI50 [15]: 1.95 µM | TGI [15]: 3.66 µM | GI50 [16]: 2.75 µM | TGI [16]: 7.84 µM | GI50 [17]: 14.2 µM | TGI [17]: 27.6 µM | GI50 [18]: 2.16 µM | TGI [18]: 5.66 µM | GI50 [19]: 16 µM | TGI [19]: 45.3 µM | GI50 [20]: 13 µM | TGI [20]: 27.4 µM | GI50 [21]: 1.56 µM | TGI [21]: 5 µM | GI50 [22]: 2.05 µM | TGI [22]: 4.89 µM | GI50 [23]: 1.93 µM | TGI [23]: 4.8 µM | GI50 [24]: 2.01 µM | TGI [24]: 3.52 µM | GI50 [25]: 6.45 µM | TGI [25]: 24.8 µM | GI50 [26]: 1.65 µM | TGI [26]: 3.24 µM | GI50 [27]: 4.28 µM | TGI [27]: 18.4 µM | GI50 [28]: 1.54 µM | TGI [28]: 2.95 µM
